Tested on: fast-dividing cells in the SVZ and SGZ
Experiment: AraC infusion (mini-osmotic pump, one week) into brain of tamoxifen-marked Gli1-CreERT2;R26R mice; marker analysis of fate-mapped lacZ+ cells
Conditions: for lacZ+;GFAP+/total lacZ+ ± SD (%): end of one-week 2% AraC infusion (0 day); for lacZ+;PSA-NCAM+/total lacZ+ ± SD (%): AraC 0 day; for Dlx2 expression: after AraC treatment
Text: For AraC treatment, two days after TM treatment, a mini-osmotic pump (model 1007D, Duret) was implanted to infuse either saline or 2% AraC (Sigma) for one week as described (Doetsch, F. et al. (1999), Proc Natl Acad Sci USA 96: 11619-11624). Brains of mice that were sacrificed at the end of AraC or control treatment were designated as day 0 samples. For long-term survival experiments, the pump was removed one week after implantation and mice were later sacrificed at the indicated survival time. The second application of AraC was done as the first AraC treatment.
Mice were perfused (4% paraformaldehyde (PFA)), processed for frozen sections, and stained with X-gal as described in the Joyner lab website (http://saturn.med.nyu.edu/research/dg/joynerlab). For immunofluorescent staining, dissected brains were fixed in 4% PFA overnight at 4° C. and 50 μm vibratome (Leica) sections were obtained. Free-floating sections were stained overnight at 4° C. with goat anti-galactosidase (1:500; Biogenesis) and one of the following antibodies: mouse anti-GFAP (1:500), anti-PSA-NCAM (1:300), anti-NeuN (1:200; Chemicon), anti-CCI (1:20, Calbiochem), anti-CNPase (1:150), anti-MBP (1:200, SMI), guinea pig anti-Olig2 (1:20,000; from B. Novitch), rat anti-NG2/AN2 (1:10; from C. Klein), and rabbit anti-GABA (1:500, Sigma). Secondary antibodies for double labeling were donkey anti-species conjugated with Alexa 488, Alexa 555 (1:500; Molecular Probes), or FITC (1:200; Jackson ImmunoResearch). Fluorescent images were captured in 1.5-μm optical sections using a confocal laser-scanning microscope (LSM 510, Zeiss) and processed with Adobe Photoshop. Orthogonal analysis was performed to confirm co-expression of two markers. Cells co-expressing lacZ and one of the various markers were counted and divided by total number of lacZ expressing cells in the indicated region. At least three sections through the SVZ and DG were analyzed from one mouse. Data from at least three mice were pooled together to determine the average and standard deviation (SD). T-test was performed to calculate the p-value and determine whether the results between two time points were different with statistical significance.
Two days after TM treatment, AraC was infused for one week into the brain of Gli1-CreER^T2; R26R mice using a mini-osmotic pump.

Nc1ccn([C@@H]2O[C@H](CO)[C@@H](O)[C@@H]2O)c(=O)n1 [AraC, cytosine arabinoside]
lacZ+;GFAP+/total lacZ+ ± SD (%) (DG (SGZ)): 93.7±4.7% | lacZ+;PSA-NCAM+/total lacZ+ ± SD (%) (DG): 2.1 ± 3.6% | Dlx2 expression (RMS): greatly diminished | Dlx2 expression (SVZ): abolished | neuroblasts (PSA-NCAM immunoreactivity) in whole mounts of the lateral wall of the lateral ventricles (end of AraC treatment (day 0), n=3): almost completely depleted | lacZ+;PSA-NCAM+/total lacZ+ ± SD (%) (ventral SVZ): 1.6 ± 2.9% | lacZ+;GFAP+/total lacZ+ ± SD (%) (ventral SVZ): 92.2±1.0% | labeled cells in the SVZ and DG versus control mice (within one week after AraC removal, n=5 vs control n=4): expanded more than control mice
